Assay results as given in patent US8791267B2, “Biaryl PDE4 inhibitors for treating inflammatory, cardiovascular and CNS disorders” (Decode Genetics EHF, priority 2007, dated 2014).
Counter-ions that a name gives are not always drawn.

Key:
PDE4B = PDE4B (Homo sapiens, UniProt Q07343); experiment: In-vitro assay for PDE4 enzymes, real-time enzyme-coupled spectrophotometric assay, PDE4B Activity (Table 10); assay type: biochemical; settings: human PDE4B (hPDE4B), enzyme-coupled spectrophotometric assay; read-out: PDE4B Activity, hPDE4B
PDE4 = PDE4 (Homo sapiens, UniProt Q08499); experiment: In-vitro assay for PDE4 enzymes, real-time enzyme-coupled spectrophotometric assay (Table 9); assay type: biochemical; settings: human PDE4D; activity class, Table 9; read-out: hPDE4D
Sequence of PDE4 (Q08499 whole entry): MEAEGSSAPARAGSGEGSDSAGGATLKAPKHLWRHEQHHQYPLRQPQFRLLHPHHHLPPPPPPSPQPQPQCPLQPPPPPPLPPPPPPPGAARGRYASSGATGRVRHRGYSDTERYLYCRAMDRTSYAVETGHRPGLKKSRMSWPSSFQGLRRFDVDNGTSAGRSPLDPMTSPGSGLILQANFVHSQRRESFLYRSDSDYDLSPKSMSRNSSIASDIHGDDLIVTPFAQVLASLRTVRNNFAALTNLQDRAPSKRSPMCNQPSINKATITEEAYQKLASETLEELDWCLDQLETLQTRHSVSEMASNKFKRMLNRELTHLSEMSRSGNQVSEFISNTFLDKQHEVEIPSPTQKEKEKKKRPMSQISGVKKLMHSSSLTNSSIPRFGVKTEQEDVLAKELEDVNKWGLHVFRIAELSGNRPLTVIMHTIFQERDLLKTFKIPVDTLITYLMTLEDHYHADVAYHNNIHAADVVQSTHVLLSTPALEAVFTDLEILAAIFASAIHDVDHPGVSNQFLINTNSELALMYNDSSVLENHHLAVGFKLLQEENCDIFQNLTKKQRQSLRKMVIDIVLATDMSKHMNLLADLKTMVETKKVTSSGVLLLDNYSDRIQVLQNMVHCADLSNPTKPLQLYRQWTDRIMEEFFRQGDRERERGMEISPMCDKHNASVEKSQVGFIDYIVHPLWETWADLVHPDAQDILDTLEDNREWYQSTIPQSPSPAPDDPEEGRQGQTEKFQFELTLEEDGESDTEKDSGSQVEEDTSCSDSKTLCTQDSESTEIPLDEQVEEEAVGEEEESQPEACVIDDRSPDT

Sequence of PDE4B (Q07343 whole entry): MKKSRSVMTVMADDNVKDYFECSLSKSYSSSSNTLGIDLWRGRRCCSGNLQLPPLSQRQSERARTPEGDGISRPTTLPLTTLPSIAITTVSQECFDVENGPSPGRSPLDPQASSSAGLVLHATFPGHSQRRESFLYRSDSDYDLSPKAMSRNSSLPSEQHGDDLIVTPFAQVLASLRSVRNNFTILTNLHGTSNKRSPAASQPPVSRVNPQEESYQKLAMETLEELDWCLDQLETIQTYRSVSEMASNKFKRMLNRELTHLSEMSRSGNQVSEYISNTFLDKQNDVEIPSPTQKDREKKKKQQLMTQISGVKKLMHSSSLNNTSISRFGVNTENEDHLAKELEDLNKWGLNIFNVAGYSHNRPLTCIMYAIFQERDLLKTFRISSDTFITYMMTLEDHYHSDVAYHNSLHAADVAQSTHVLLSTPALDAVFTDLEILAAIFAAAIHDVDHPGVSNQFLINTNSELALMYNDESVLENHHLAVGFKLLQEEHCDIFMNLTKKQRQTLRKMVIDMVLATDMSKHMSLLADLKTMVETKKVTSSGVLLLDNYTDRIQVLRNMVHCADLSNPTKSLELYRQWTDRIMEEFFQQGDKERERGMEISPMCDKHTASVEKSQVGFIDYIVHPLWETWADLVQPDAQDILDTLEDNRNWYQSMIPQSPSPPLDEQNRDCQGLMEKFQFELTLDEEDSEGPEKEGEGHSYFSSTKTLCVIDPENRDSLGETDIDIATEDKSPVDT

| SMILES | IC50 (PDE4B) | IC50 (PDE4) |
| --- | --- | --- |
| O=[N+]([O-])c1cccc(-c2nc(Cc3ccc(F)cc3)ccc2OC(F)F)c1 [P-057] | < 5 µM | < 5 µM |
| COc1ccc(Cc2ccc(NS(C)(=O)=O)cc2)c(F)c1-c1cccc(Cl)c1 [P-227] | < 5 µM | < 5 µM |
| COc1ccc(Cc2ccc(CN)nc2)c(F)c1-c1cccc(Cl)c1 [P-344, C-[5-(3′-Chloro-2-fluoro-6-methoxy-biphenyl-3-ylmethyl)-pyridin-2-yl]-methylamine] | < 5 µM | < 5 µM |
| COc1ccc(Cc2cccc(NC(C)=O)c2)c(F)c1-c1cccc(Cl)c1 [P-233] | < 5 µM | < 5 µM |
| CCOc1ccc(Cc2ccc(N)cc2)c(F)c1-c1cccc(C(C)=O)c1 [P-334, 1-[3′-(4-Amino-benzyl)-6′-ethoxy-2′-fluoro-biphenyl-3-yl]-ethanone; hydrochloride] | < 5 µM | < 5 µM |
| COc1ccc(Cc2cccnc2Cl)c(O)c1-c1cccc([N+](=O)[O-])c1 [P-109] | < 5 µM | < 5 µM |
| COc1ccc(Cc2ccc(F)cc2)cc1-c1ccc2nonc2c1 [P-004, 5-[5-(4-Fluoro-benzyl)-2-methoxy-phenyl]-benzo[1,2,5]oxadiazole] | 5 to 20 µM | < 5 µM |
| COc1ccc(Cc2cnc(NC(N)=O)nc2)c(F)c1-c1cccc(Cl)c1 [P-291] | < 5 µM | < 5 µM |
| COc1ccc(CN2CCOC2=O)cc1-c1cccc([N+](=O)[O-])c1 [P-076, 3-(6-Methoxy-3′-nitro-biphenyl-3-ylmethyl)-oxazolidin-2-one] | < 5 µM | < 5 µM |
| COc1ccc(CN2CC[C@H](O)C2)cc1-c1cccc([N+](=O)[O-])c1 [P-070, (S)-1-(6-Methoxy-3′-nitro-biphenyl-3-ylmethyl)-pyrrolidin-3-ol] | 21 to 40 µM | < 5 µM |
| COc1ccc(Cn2cncn2)cc1-c1cccc(C(C)=O)c1 [P-082, 1-(2′-Methoxy-5′-[1,2,4]triazol-1-ylmethyl-biphenyl-3-yl)-ethanone] | 5 to 20 µM | < 5 µM |
| COc1ccc(Cc2ccc(CNC(C)=O)c(F)c2)c(F)c1-c1cccc(Cl)c1 [P-300] | < 5 µM | < 5 µM |
| COC(=O)Nc1nnc(Cc2ccc(OC)c(-c3cccc(Cl)c3)c2F)s1 [P-342, Methyl[5-(3′-Chloro-2-fluoro-6-methoxy-biphenyl-3-ylmethyl)-[1,3,4]thiadiazol-2-yl]-carbamate] | < 5 µM | < 5 µM |
| COc1ccc(Cc2cnc(N)nc2)c(F)c1-c1cccc(C(C)=O)c1 [P-281, 1-[3′-(2-Amino-pyrimidin-5-ylmethyl)-2′-fluoro-6′-methoxy-biphenyl-3-yl]-ethanone hydrochloride] | < 5 µM | < 5 µM |
| COc1ccc(Cc2cccnc2Cl)c(O)c1-c1cccc(N)c1 [P-182] | 21 to 40 µM | 5 to 20 µM |
| COc1ccc(Cc2ccc(CN)cc2)c(F)c1-c1cccc([N+](=O)[O-])c1 [P-148] | < 5 µM | < 5 µM |

| SMILES | IC50 (PDE4B) | IC50 (PDE4) |
| --- | --- | --- |
| COc1ccc(Cc2ccc(NC(=O)OC(C)(C)C)cc2)cc1-c1cccc([N+](=O)[O-])c1 [P-112] | < 5 µM | < 5 µM |
| COc1ccc(Cc2ccc(N3CCNC3=O)nc2)c(F)c1-c1cccc(C(C)=O)c1 [P-361, 1-[5-(3′-Acetyl-2-fluoro-6-methoxy-biphenyl-3-ylmethyl)-pyridin-2-yl]-imidazolidin-2-one] | < 5 µM | < 5 µM |
| COc1ccc(Cc2ccc(NC(N)=O)cc2)c(F)c1-c1cccc(Br)c1 [P-347] | < 5 µM | < 5 µM |
| COc1ccc(Nc2ccc(N)cc2)cc1-c1cccc(Cl)c1 [P-280, N-(3′-Chloro-6-methoxy-biphenyl-3-yl)-benzene-1,4-diamine; hydrochloride] | < 5 µM | < 5 µM |
| COc1ccc(Cc2ccno2)c(O)c1-c1cccc([N+](=O)[O-])c1 [P-130, 3-isoxazol-5-ylmethyl-6-methoxy-3′-nitro-biphenyl-2-ol] | < 5 µM | < 5 µM |
| COc1ccc(CN2CCCC2=O)c(O)c1-c1cccc([N+](=O)[O-])c1 [P-229] | < 5 µM | < 5 µM |
| CCNc1ccc(Cc2ccc(OC)c(-c3cccc(C(C)=O)c3)c2F)cn1 [P-339] | < 5 µM | < 5 µM |
| COc1ccc(Cc2cccc(CN)c2)cc1-c1cccc([N+](=O)[O-])c1 [P-161, 3-(6-Methoxy-3′-nitro-biphenyl-3-ylmethyl)-benzylamine] | 5 to 20 µM | 5 to 20 µM |
| COc1ccc(Cc2ccc(=O)[nH]n2)cc1-c1ccc2nonc2c1 [P-012, 6-(3-Benzo[1,2,5]oxadiazol-5-yl-4-methoxy-benzyl)-2H-pyridazin-3-one] | 5 to 20 µM | 5 to 20 µM |
| COc1ccc(CN2C(=O)CC[C@H]2CO)cc1-c1cccc([N+](=O)[O-])c1 [P-131, (S)-5-Hydroxymethyl-1-(6-methoxy-3′-nitro-biphenyl-3-ylmethyl)-pyrrolidin-2-one] | 5 to 20 µM | 5 to 20 µM |
| COc1ccc(Cc2cnc(N(C)C)nc2)c(F)c1-c1cccc(C(C)=O)c1 [P-325, 1-[3′-(2-Dimethylamino-pyrimidin-5-ylmethyl)-2′-fluoro-6′-methoxy-biphenyl-3-yl]-ethanone] | < 5 µM | < 5 µM |
| COc1ccc(Cc2cccnc2)c(O)c1-c1cccc([N+](=O)[O-])c1 [P-106] | < 5 µM | < 5 µM |
| COc1ccc(Cn2cncn2)nc1-c1cccc([N+](=O)[O-])c1 [P-024, 3-methoxy-2-(3-nitro-phenyl)-6-[1,2,4]triazol-1-ylmethyl-pyridine] | 21 to 40 µM | < 5 µM |
| COC(=O)c1cccc(-c2cc(Cc3ccc(F)cc3)ccc2OC)c1 [P-002] | < 5 µM | < 5 µM |
| COc1ccc(Cc2ccc(NC(C)=O)cc2)c(O)c1-c1cccc([N+](=O)[O-])c1 [P-190, N-[4-(2-Hydroxy-6-methoxy-3′-nitro-biphenyl-3-ylmethyl)-phenyl]-acetamide] | < 5 µM | < 5 µM |
| COc1ccc(Cc2ccc(OCCN(C)C)nc2)c(O)c1-c1cccc([N+](=O)[O-])c1 [P-150] | 5 to 20 µM | 5 to 20 µM |

Now from value to compound:

| IC50 (PDE4B) | IC50 (PDE4) | SMILES |
| --- | --- | --- |
| < 5 µM | < 5 µM | COc1ccc(COc2ccc(NC(C)=O)cc2)c(F)c1-c1cccc(Cl)c1 [P-594] |
| 21 to 40 µM | < 5 µM | [2H]C(O)(c1ccc(NC(N)=O)cc1)c1ccc(OC)c(-c2cccc(Cl)c2)c1F (stereo not drawn) [P-539, {4-[(3′-chloro-2-fluoro-6-methoxy-biphenyl-3-yl)-hydroxy-deutero-methyl]-phenyl}-urea] |
| < 5 µM | < 5 µM | COc1ccc(Cc2cnc(N)nc2)c(F)c1-c1cccc(C#N)c1 [P-395, 3′-(2-Amino-pyrimidin-5-ylmethyl)-2′-fluoro-6′-methoxy-biphenyl-3-carbonitrile] |
| 5 to 20 µM | < 5 µM | COc1ccc(CN2CCN(C(N)=O)CC2)c(F)c1-c1cccc(Cl)c1 [P-370] |
| < 5 µM | < 5 µM | CCN1CCN(Cc2ccc(Cc3ccc(OC)c(-c4cccc(Cl)c4)c3F)cn2)C1=O [P-461, 1-[5-(3′-Chloro-2-fluoro-6-methoxy-biphenyl-3-ylmethyl)-pyridin-2-ylmethyl]-3-ethyl-imidazolidin-2-one hydrochloride] |
| < 5 µM | < 5 µM | COc1ccc(Cc2ccc(N3CC(O)C3)nc2)c(F)c1-c1cccc(Cl)c1 [P-457, 1-[5-(3′-Chloro-2-fluoro-6-methoxy-biphenyl-3-ylmethyl)-pyridin-2-yl]-azetidin-3-ol] |
| < 5 µM | < 5 µM | COc1ccc(-n2cnc3ccc(N)cc32)cc1-c1cccc(Cl)c1 [P-524, 3-(3′-Chloro-6-methoxy-biphenyl-3-yl)-3H-benzoimidazol-5-ylamine] |
| 5 to 20 µM | < 5 µM | NC(=O)Nc1ccc(Cc2ccc(O)c(-c3cccc([N+](=O)[O-])c3)c2F)cc1 [P-508] |
| 21 to 40 µM | < 5 µM | COc1ccc(Cc2ccc(C(C)(C)N)nc2)cc1-c1cccc(Cl)c1 [P-600, hydrochloride] |
| < 5 µM | < 5 µM | COc1ccc(Cc2cnc(Cl)nc2)c(F)c1-c1cccc(Cl)c1 [P-392] |
| < 5 µM | < 5 µM | COc1ccc(Cc2ccc(Nc3nccn3C)cc2)cc1-c1cccc(Cl)c1 [P-467, [4-(3′-Chloro-6-methoxy-biphenyl-3-ylmethyl)-phenyl]-(1-methyl-1H-imidazol-2-yl)-amine] |
| < 5 µM | < 5 µM | COc1ccc(Cc2ccc(CNC(=O)N(C)C)nc2)c(F)c1-c1cccc(Cl)c1 [P-371, 3-[5-(3′-Chloro-2-fluoro-6-methoxy-biphenyl-3-ylmethyl)-pyridin-2-ylmethyl]-1,1-dimethyl-urea hydrochloride] |
| < 5 µM | < 5 µM | [2H]C([2H])(c1ccc(NC(N)=O)cc1)c1ccc(OC)c(-c2cccc(Cl)c2)c1 [P-547, {4-[Bisduetero-(3′-chloro-6-methoxy-biphenyl-3-yl)-methyl]-phenyl}-urea] |
| < 5 µM | < 5 µM | COc1ccc(Cc2ccc(N)cn2)c(F)c1-c1cccc(Cl)c1 [P-478] |
| < 5 µM | < 5 µM | COc1ccc(Cc2ccc(C(C)(C)O)nc2)cc1-c1cccc(Cl)c1 [P-605, 2-[5-(3′-chloro-6-methoxy-biphenyl-3-ylmethyl)-pyridin-2-yl]-propan-2-ol HCl salt] |
| < 5 µM | < 5 µM | NC(=O)Nc1ccc(Cc2ccc(OC(F)F)c(-c3cccc(Cl)c3)c2)cc1 [P-420] |
| < 5 µM | < 5 µM | COc1ccc(Cc2ccnc(CN)c2)c(F)c1-c1cccc(Cl)c1 [P-437, C-[4-(3′-Chloro-2-fluoro-6-methoxy-biphenyl-3-ylmethyl)-pyridin-2-yl]-methylamine] |
| < 5 µM | < 5 µM | COc1ccc(Cc2ccc(CO)nc2)cc1-c1cccc(Cl)c1 [P-567, [5-(3′-Chloro-6-methoxy-biphenyl-3-ylmethyl)-pyridin-2-yl]-methanol] |
| 21 to 40 µM | < 5 µM | CC(=O)Nc1ccc(Cc2ccc(O)c(-c3cccc(Br)c3)c2F)cc1 [P-620] |
